Data set [1] is described as follows: Cmax value in IRC mice. To be noted: mouse, in vivo. The format is ADME, organism-based.
Data set [2] has as its target T1, Retinoic acid receptor beta (Homo sapiens, UniProt P10826).
T1 sequence (P10826 whole entry): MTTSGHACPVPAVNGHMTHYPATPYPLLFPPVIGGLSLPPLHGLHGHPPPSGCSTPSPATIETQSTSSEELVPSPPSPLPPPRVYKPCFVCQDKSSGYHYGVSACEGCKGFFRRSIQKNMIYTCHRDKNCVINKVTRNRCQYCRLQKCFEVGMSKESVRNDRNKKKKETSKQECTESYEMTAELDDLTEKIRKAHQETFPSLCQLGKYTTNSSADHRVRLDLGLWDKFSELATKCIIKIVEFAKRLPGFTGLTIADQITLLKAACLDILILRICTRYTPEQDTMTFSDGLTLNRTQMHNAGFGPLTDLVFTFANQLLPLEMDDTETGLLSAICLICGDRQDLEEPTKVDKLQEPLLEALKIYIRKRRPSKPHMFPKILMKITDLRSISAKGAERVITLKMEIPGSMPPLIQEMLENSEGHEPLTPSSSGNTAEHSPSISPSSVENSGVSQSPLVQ
Put plainly: Binding affinity against RAR beta receptor using [3H]ATRA as radioligand in CV-1 cells. Type of data set: cell-based, Cercopithecidae.

Data set [3] deals with T2, Retinoic acid receptor RXR-beta (Homo sapiens, UniProt P28702).
T2 sequence (P28702 whole entry): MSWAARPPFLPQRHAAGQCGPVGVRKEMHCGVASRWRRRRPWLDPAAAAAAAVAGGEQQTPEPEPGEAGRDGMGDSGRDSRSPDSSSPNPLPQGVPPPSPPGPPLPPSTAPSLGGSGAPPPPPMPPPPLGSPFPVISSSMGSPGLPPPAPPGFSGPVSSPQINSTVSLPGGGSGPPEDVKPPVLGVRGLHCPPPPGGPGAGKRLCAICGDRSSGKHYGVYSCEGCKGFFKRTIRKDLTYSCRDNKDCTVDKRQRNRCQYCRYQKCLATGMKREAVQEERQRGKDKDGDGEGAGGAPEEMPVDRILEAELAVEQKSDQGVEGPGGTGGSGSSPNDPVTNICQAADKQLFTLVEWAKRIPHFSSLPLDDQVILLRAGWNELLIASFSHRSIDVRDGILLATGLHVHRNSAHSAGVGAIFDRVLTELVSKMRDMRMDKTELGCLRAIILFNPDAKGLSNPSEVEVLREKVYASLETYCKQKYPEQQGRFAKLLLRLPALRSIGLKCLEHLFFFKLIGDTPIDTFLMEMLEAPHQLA
Put plainly: Displacement of [3H]9-cis-RA from RXR beta receptor in CV-1 cells. Type of data set: cell-based, Cercopithecidae.

In data set [4] the target is T3, Retinoic acid receptor alpha (Homo sapiens, UniProt P10276).
T3 sequence (P10276 whole entry): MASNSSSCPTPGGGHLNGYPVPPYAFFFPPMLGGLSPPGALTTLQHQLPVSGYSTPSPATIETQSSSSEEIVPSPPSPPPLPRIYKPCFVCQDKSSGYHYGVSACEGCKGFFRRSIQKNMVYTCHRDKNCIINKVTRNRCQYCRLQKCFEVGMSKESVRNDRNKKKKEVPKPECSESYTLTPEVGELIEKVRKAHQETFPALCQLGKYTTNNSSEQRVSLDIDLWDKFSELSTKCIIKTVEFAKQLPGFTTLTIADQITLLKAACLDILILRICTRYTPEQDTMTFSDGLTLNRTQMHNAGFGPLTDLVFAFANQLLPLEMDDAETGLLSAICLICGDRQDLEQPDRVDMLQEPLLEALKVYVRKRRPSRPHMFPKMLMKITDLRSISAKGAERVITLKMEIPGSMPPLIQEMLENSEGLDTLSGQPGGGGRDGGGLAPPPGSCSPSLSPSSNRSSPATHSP
Put plainly: Binding affinity against RAR alpha receptor using [3H]ATRA as radioligand in CV-1 cells. Type of data set: cell-based, Cercopithecidae.

In data set [5] the target is T4, Retinoic acid receptor gamma (Homo sapiens, UniProt P13631).
T4 sequence (P13631 whole entry): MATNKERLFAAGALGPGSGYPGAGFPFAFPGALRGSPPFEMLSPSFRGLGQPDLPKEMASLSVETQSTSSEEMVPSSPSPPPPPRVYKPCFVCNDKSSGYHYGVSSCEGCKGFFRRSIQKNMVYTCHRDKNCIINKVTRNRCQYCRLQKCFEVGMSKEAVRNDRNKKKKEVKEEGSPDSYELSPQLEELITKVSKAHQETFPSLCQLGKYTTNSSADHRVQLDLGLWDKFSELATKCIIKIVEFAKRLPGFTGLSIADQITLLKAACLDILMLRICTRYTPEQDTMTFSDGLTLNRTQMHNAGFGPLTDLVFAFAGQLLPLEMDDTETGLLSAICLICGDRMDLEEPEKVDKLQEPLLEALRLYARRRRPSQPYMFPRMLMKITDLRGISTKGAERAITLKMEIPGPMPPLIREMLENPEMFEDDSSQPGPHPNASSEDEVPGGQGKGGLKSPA
Put plainly: Binding affinity against RAR gamma receptor using [3H]ATRA as radioligand in CV-1 cells. The format is cell-based, Cercopithecidae.

In data set [6] the target is T5, Peroxisome proliferator-activated receptor gamma (Homo sapiens, UniProt P37231).
T5 sequence (P37231 whole entry): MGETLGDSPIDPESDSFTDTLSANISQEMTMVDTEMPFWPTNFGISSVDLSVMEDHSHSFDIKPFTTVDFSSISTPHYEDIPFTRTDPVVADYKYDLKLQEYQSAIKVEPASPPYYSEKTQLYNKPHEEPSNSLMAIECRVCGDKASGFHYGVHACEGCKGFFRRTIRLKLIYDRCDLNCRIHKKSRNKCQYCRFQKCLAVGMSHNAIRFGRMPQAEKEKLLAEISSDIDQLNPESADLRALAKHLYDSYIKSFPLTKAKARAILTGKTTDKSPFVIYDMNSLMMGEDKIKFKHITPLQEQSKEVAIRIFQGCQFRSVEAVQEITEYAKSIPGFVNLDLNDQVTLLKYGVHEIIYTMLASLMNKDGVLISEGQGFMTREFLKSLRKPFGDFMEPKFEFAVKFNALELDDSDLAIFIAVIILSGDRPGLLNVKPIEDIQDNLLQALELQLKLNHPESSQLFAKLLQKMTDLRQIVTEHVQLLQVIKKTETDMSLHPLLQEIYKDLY
Description: In vitro agonistic activity against PPAR gamma along with 100 nM BRL-49653

In data set [7] the target is T5, Peroxisome proliferator-activated receptor gamma. The source holds these as a separate data set.
Description: In vitro agonist efficacy against PPAR gamma along with 100 nM BRL-49653

The structures appear in SMILES notation. “And” between values parts separate entries of the source, which are not always exact repeats. Equal values may be shown once.

In the case of `C/C(=C/C=C/C(C)=C/C(=O)O)c1cc(-c2ccccc2F)cc(C(C)C)c1OCC(F)F`, the Cmax in data set [1] was 4140 ng/mL and 9.31 µM. For the same molecule, the Ki in data set [2] came out at 3930 nM; in data set [3], 16 nM; in data set [4], 6760 nM; in data set [5], 8760 nM. Moreover, the values for the EC50 in data set [6] and in data set [7] were 0.4 nM and 46 nM, respectively.
With `CCOc1c(\C(C)=C/C=C/C(C)=C/C(=O)O)cc(C(F)(F)C(F)(F)F)cc1C(C)C`, in data set [1], the Cmax was 4430 ng/mL and 10.2 µM. Also, the Ki in data set [2] is over 10000 nM; in data set [3], 8.5 nM; in data set [4] it was over 10000 nM; in data set [5] it was over 10000 nM. For the same molecule, the EC50 was found to be 0.7 nM in data set [6] and 99 nM in data set [7].

In general, Cmax refers to the peak of the concentration-time curve. One may read the Ki as a dissociation constant, usually derived from enzyme kinetics or from competition with a known ligand. Read a low Ki as higher affinity. In general, EC50 refers to the concentration at which the effect is half-maximal. The low end stands for higher potency in that assay, the high end for lower potency in that assay.
